Experimental data as given in patent US12649748B2, “Wee1 inhibitor and use thereof” (JIANGSU TASLY DIYI PHARMACEUTICAL CO., LTD., priority 2021, dated 2026).
Where two headings read alike, the source gives them in different places.

Key:
Wee1 protein = biological target: T1, Wee1 protein (Homo sapiens, UniProt P30291); experiment: Binding of compound to Wee1 protein and Tracer 178 by TR-FRET; conditions: inhibitory activity against Wee1 kinase, read-out: IC50 measured value
T1 construct: purchased Thermo Fisher PR7373A
Procedure: First, solutions of the compounds in different concentration gradients were prepared. […] DMSO was added as a positive control (maximal signal control) and a negative control (minimal signal control) and a final level of 0.25% DMSO was ensured in each reaction well.
WEE1 (Thermo Fisher, Cat #PR7373A) protein in buffer (50 mM Hepes pH 7.5, 10 mM MgCl2, 1 mM EGTA, 0.01% Brij-35) at 15 nM) in different concentrations of compound, and Tracer 178 (Invitrogen, PV5593) and MAb Anti-GST-Eu crypate (Cisbio, 61GSTKLA) were added to 384-well plates (Corning, cat #3574), centrifuged at 1000 rpm for 1 min and the 384-well plates were incubated in a constant temperature shaker for 60 min at 25° C. and 300 rpm. Tracer 178 and MAb Anti-GST-Eu crypate were prepared in buffer (50 mM HEPES pH 7.5, 10 mM MgCl2, 1 mM EGTA, 0.01% Brij-35) with a final reaction concentration of 50 nM for Tracer 178 and a final concentration of 2 nM for MAb Anti-GST-Eu crypate, where the negative control (minimal signal control) used an equal amount of buffer in place of the protein solution.
After incubation, readings were performed using BMG PHERAStar (excitation light at 337 nm and emission light at wavelength values of 620 nm and 665 nm to read the fluorescence signal values). […] The IC50 for inhibition of enzyme activity by the compounds was then calculated using GraphPad Prism 6 and fitted with a log (inhibitor) vs. response-Variable slope mode. The fitting equation was: Y=Bottom+(Top-Bottom)/(1+10^((Log IC50−X)*HillSlope)), where Y represents the percentage of residual enzyme activity known and X represents the known concentration of compound after the logarithm.

H1299 cells = experiment: Anti-proliferative effect by Cell Titer-Glo, H1299; assay type: cell-based; conditions: Homo sapiens, NCI-H1299, 72 h, read-out: IC50 measured value H1299
Procedure: (§1) Compound solutions of different concentration gradients were prepared. DMSO was dissolved to a concentration of 10 mM test compound and 10 mM reference compound AZD1775, and the compounds were serially diluted in culture medium for a total of 9 dose points, with 2 parallel replicates set at each concentration. The cell growth group without compound was used as a positive control (maximum signal control) and the medium was used as a negative control (minimum signal control), while ensuring that the final level of DMSO in each reaction well was 0.2%. After removing the medium from the 384-well plate, 25 ul of the configured compound at different concentrations was transferred into the well plate and the compound and cells were incubated in the cell incubator at 37° C. with 5% CO2 for 3 days.
(§2) The 384-well plates were removed from the cell incubator and allowed to equilibrate for 1 h to room temperature. 25 ul of Cell Titer-Glo assay was added to each well, lysed on a shaker for 2 min and then read out (Luminescence) using a BMG PHERAStar after 10 min incubation. Calculate the inhibition rate from the luminescence signal: first calculate the average of the positive control (maximum signal control) and the negative control (minimum signal control).
(§3) [formula] to calculate the rate of inhibition of the cells by different concentrations of the compounds. The IC50 of the compound on cell activity inhibition was calculated by fitting a log(inhibitor) vs. response-Variable slope model to GraphPad Prism 6. The fitted equation was: Y=Bottom+(Top−Bottom)/(1+10^((Log IC50−X)*HillSlope)), where Y represents the rate of inhibition and X represents the concentration of the known compound after Log.

MIA Paca-2 cells = experiment: Anti-proliferative effect by Cell Titer-Glo, MIA Paca-2; assay type: cell-based; conditions: Homo sapiens, read-out: IC50 measured value MIA Paca-2
Procedure: as §1, §2, §3

[1] = Compound pharmacokinetics in mice; assay type: in vivo; conditions: male ICR mice, oral gavage 10 mg/kg, plasma; for Cmax / AUC(0-inf) / half-life: mouse; for AUC(0-inf): read-out: AUCinf—Pred; for half-life: read-out: T½ (converted)
Procedure: To investigate the pharmacokinetic properties of the compound in mice, six male ICR mice were given the compound by oral gavage (10 mg/kg) at the corresponding dose, and each route of administration was divided into two groups: group A mice had anticoagulated whole blood collected at 5 min, 30 min, 2 h and 8 h after administration, while group B mice had anticoagulated whole blood collected at 15 min, 1 h, 4 h and 24 h after administration, isolated plasma;
The plasma concentrations of the compounds were determined by LC-MS using a standard curve calibration method. Plasma concentration-time data were fitted to pharmacokinetic parameters using Winnolin 5.2 software.

[2] = Metabolic stability of liver microsomes in vitro (mouse); assay type: in vitro ADME; conditions: read-out: Mouse T1/2/min
Procedure: Microsomes were taken out from the −80° C. refrigerator, rapidly melted in a 37° C. water bath and placed on ice until ready to use. The test article was diluted with DMSO to prepare a 10 mM stock solution, and then diluted with acetonitrile to a 0.5 mM secondary stock solution. The microsomes were diluted to 0.75 mg/ml using Buffer C; the secondary stock solution was then added to a final concentration of 1.5 μM of compound as working solution, based on n=2, 5 time points, 350 μL of each compound was prepared and placed on ice prior to use. NADPH was diluted with Buffer C to a working solution of 6 mM for the starter solution. An acetonitrile solution containing an internal standard was prepared as the precipitant, and Verapamil-HCl was chosen as the internal standard at a concentration of 4 ng/ml.
A round-bottom well plate was taken, noted as the reaction plate, and the prepared working solution for each compound was dispensed into the well plate according to the number of replicates and time points (0 h samples are also added to the reaction plate), 30 μL/well; the plate was incubated at 37° C. for 10 min. A separate plate with pointed bottom wells, noted as a precipitation plate, was added with 135 μL precipitant per well; 0 h samples were transferred to the plate after 10 min incubation and 15 μL of starter solution was added; the plate was placed on ice before centrifugation.
The diluted starter solution was added in sufficient quantity to the dispensing plate to facilitate the multichannel pipette aspiration operation.
The reaction was carried out on a warm incubation shaker and 15 μL of starter solution/sample is added to the plate using a multichannel pipette. The reaction was mixed with a slight shake to initiate the reaction, which was accurately timed and recorded using a timer;
After the reaction time had elapsed, all the solution in the plate was aspirated using the multichannel pipette and added to the precipitation plate to terminate the reaction at that point in time. After all reactions had been terminated, the plates were shaken for ten minutes on a plate shaker at 600 rpm to precipitate the protein. The plate was centrifuged at 4° C. for 15 minutes at maximum rpm. 80 μL of supernatant was taken, 320 μL of pure water was added and mixed for LC-MS analysis.

[3] = Membrane permeability study (Caco-2); assay type: in vitro ADME; conditions: human; for efflux ratio at 90 min, 10 µM: Caco-2, pH 7.4, read-out: Efflux Ration; for Papp A→B at 90 min, 10 µM / Papp B→A at 90 min, 10 µM: pH 7.4, Caco-2, 10 μM; for Papp A→B at 90 min, 10 µM: A to B; for Papp B→A at 90 min, 10 µM: B to A
Procedure: Caco-2 cells were purchased from the […] (Rockville, MD). The cell culture medium was modified Eagle's medium (MEM) containing 10% inactivated fetal bovine serum and 1% non-essential amino acids. Cells were inoculated on polycarbonate filter membranes (Cat no. 3396) and incubated at 37° C. in a 5% CO2 incubator.
The cells were incubated for 21-28 days after inoculation for transport experiments and the apparent permeability (Papp) of Lucifer Yellow was used to characterize and verify the compactness of the cell monolayer. A stock solution of 10 mM was prepared by dissolving the compound in DMSO and diluted using Hanks Balanced Salt Solution (HBSS, Invitrogen, Cat #14025-092) containing 25 mM HEPES (pH 7.4) to obtain the working solution. A 10 μM working solution of the compound to be tested was added to the apical side and basolateral side of Caco-2 and incubated at 37° C. for 90 min. After the incubation, dilute the samples on the apical side and basolateral side, and the concentrations of compounds on the apical and basolateral sides were detected by LC-MS/MS, and the concentrations of the compounds were quantified by standard curve.

[4] = H1299 cells, 3 days, Cell Titer-Glo
[5] = 72 h, MIA Paca-2 cells, 3 days, Cell Titer-Glo

T1 sequence (P30291 whole entry): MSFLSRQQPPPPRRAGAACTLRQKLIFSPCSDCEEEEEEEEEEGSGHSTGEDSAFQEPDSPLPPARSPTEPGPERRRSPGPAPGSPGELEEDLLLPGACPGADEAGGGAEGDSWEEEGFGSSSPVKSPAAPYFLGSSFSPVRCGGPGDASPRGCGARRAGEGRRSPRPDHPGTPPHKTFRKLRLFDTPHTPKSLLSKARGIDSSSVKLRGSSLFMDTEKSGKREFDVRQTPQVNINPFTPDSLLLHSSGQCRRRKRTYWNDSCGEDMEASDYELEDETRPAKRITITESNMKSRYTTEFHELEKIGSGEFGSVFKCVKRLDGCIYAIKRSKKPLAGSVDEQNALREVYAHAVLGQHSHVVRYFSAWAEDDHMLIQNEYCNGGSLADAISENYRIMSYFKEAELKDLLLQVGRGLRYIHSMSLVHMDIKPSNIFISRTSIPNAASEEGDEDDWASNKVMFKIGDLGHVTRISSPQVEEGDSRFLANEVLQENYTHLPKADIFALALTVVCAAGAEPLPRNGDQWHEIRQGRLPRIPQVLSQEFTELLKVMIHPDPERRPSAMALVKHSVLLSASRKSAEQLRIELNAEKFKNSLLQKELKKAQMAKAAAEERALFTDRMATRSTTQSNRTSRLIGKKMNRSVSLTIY

Row | SMILES | IC50 (Wee1 protein) | IC50 (H1299 cells; [4]) | IC50 (MIA Paca-2 cells; [5]) | also measured
1 | CN1CCN(c2ccc(Nc3ncc4cnn(-c5ccnc(N=S(C)(C)=O)c5)c4n3)cc2)CC1 [Compound 28] | 100 to 1000 nM | 5000 to 20000 nM | 1000 to 5000 nM | Cl_pred [1]: 13.8 L/h/kg; Cmax [1]: 337 ng/mL; AUC(0-inf) [1]: 743 ng·h/mL; half-life [1]: 107 min
2 | CN1CCN(c2ccc(Nc3ncc4cnn(-c5ccc6c(c5)C(C)(O)CO6)c4n3)cc2)CC1 (stereo not shown) [Compound 40] | 10 to 100 nM | 100 to 1000 nM | 100 to 1000 nM | half-life at 1 µM [2]: 20.4 min; efflux ratio at 90 min, 10 µM [3]: 0.89; Papp A→B at 90 min, 10 µM [3]: 18.6 ×10⁻⁶ cm/s; Papp B→A at 90 min, 10 µM [3]: 16.6 ×10⁻⁶ cm/s; Cl_pred [1]: 24.3 L/h/kg; Cmax [1]: 377 ng/mL; AUC(0-inf) [1]: 493 ng·h/mL; half-life [1]: 42 min
3 | CCn1cnc2ccc(-n3ncc4cnc(Nc5ccc(N6CCN(C)CC6)cc5)nc43)cc21 [Compound 45] | 10 to 100 nM | 100 to 1000 nM | 100 to 1000 nM | half-life at 1 µM [2]: 10.3 min; efflux ratio at 90 min, 10 µM [3]: 1.79; Papp A→B at 90 min, 10 µM [3]: 4.09 ×10⁻⁶ cm/s; Papp B→A at 90 min, 10 µM [3]: 7.34 ×10⁻⁶ cm/s
4 | CN1CCN(c2ccc(Nc3ncc4cnn(-c5cccc(C(C)(C)O)c5)c4n3)cn2)CC1 [Compound 47] | 100 to 1000 nM | 100 to 1000 nM | 100 to 1000 nM | 
5 | CN1CCN(c2ccc(Nc3ncc4cnn(-c5cccc(-n6ccccc6=O)c5)c4n3)cc2)CC1 [Compound 48] | 10 to 100 nM | 1000 to 5000 nM | 1000 to 5000 nM | 
6 | CN1CCN(c2ccc(Nc3ncc4cnn(-c5ccc6c(c5)c(N)nn6C)c4n3)cc2)CC1 [Compound 49] | 100 to 1000 nM |  |  | IC50 (H1299 cells): 1000 to 5000 nM; IC50 (MIA Paca-2 cells; MIA PaCa-2, 72 h): 1000 to 5000 nM
7 | Cc1nc2cccc(-n3ncc4cnc(Nc5ccc(N6CCN(C)CC6)cc5)nc43)c2o1 [Compound 51] | 10 to 100 nM | 100 to 1000 nM | 100 to 1000 nM | 
8 | CN1CCN(c2ccc(Nc3ncc4cnn(-c5cc(C(C)(C)O)ccc5F)c4n3)cc2)CC1 [Compound 52] | 100 to 1000 nM | 100 to 1000 nM | 100 to 1000 nM | 
9 | CN1CCN(c2ccc(Nc3ncc4cnn(-c5cccc(-n6ccccc6=O)n5)c4n3)cc2)CC1 [Compound 54] | 10 to 100 nM | 5000 to 20000 nM | 1000 to 5000 nM | 
10 | CN1CCN(c2ccc(Nc3ncc4cnn(-c5ccc6ncc(C(C)(C)O)n6c5)c4n3)cc2)CC1 [Compound 55] | 10 to 100 nM | 1000 to 5000 nM | 1000 to 5000 nM | 
11 | CN1CCN(c2ccc(Nc3ncc4cnn(-c5cccc(N=S(C)(C)=O)c5)c4n3)nc2)CC1 [Compound 56] | 100 to 1000 nM | 5000 to 20000 nM | 5000 to 20000 nM | 
12 | CCC1(O)CCc2ccc(-n3ncc4cnc(Nc5ccc(N6CCN(C)CC6)cc5)nc43)nc21 (stereo not shown) [Compound 57] | 100 to 1000 nM | 1000 to 5000 nM | 100 to 1000 nM | 
13 | Cc1nc2ccc(-n3ncc4cnc(Nc5ccc(N6CCN(C)CC6)cc5)nc43)cc2n1C [Compound 58] | 10 to 100 nM | < 100 nM | 100 to 1000 nM | 
14 | CCN1C(=O)COc2ccc(-n3ncc4cnc(Nc5ccc(N6CCN(C)CC6)cc5)nc43)cc21 [Compound 59] | 10 to 100 nM |  |  | IC50 (H1299 cells): 100 to 1000 nM; IC50 (MIA Paca-2 cells; MIA PaCa-2, 72 h): 100 to 1000 nM
15 | CCn1ncc2ccc(-n3ncc4cnc(Nc5ccc(N6CCN(C)CC6)cc5)nc43)nc21 [Compound 60] | 10 to 100 nM |  |  | IC50 (H1299 cells): 1000 to 5000 nM; IC50 (MIA Paca-2 cells; MIA PaCa-2, 72 h): 100 to 1000 nM
16 | CCN1C(=O)C2(CC2)c2ccc(-n3ncc4cnc(Nc5ccc(N6CCN(C)CC6)cc5)nc43)cc21 [Compound 61] | 100 to 1000 nM |  |  | IC50 (H1299 cells): 5000 to 20000 nM; IC50 (MIA Paca-2 cells; MIA PaCa-2, 72 h): 1000 to 5000 nM
17 | CN1CCN(c2ccc(Nc3ncc4cnn(-c5ccc6nncn6c5)c4n3)cc2)CC1 [Compound 62] | 100 to 1000 nM | 5000 to 20000 nM | 1000 to 5000 nM | 
